Earlier results, collected in the PKSmart pharmacokinetics tables (Seal et al. 2025).

Assays:
[1] = Lombardo et al. 2013, J Clin Pharmacol 53:178, doi 10.1177/0091270012440282; settings: for Vd / clearance: in vivo, iv; for fraction unbound: plasma
[2] = Lombardo, Berellini, Obach 2018, Drug Metab Dispos 46:1466, doi 10.1124/dmd.118.082966; settings: human; for half-life / MRT / Vd / clearance: in vivo, iv; for fraction unbound: plasma

Row | Compound | Vd ([1]; dog) | Vd ([1]; rat) | fraction unbound ([1]; rat) | half-life [2] | clearance ([1]; dog) | clearance ([1]; rat) | MRT [2] | Vd [2] | clearance [2] | fraction unbound [2] | fraction unbound ([1]; dog) | Vd ([1]; monkey) | clearance ([1]; monkey) | fraction unbound ([1]; monkey)
1 | COC(=O)C1=C(C)NC(C)=C(C(=O)OC)C1c1ccccc1[N+](=O)[O-] | 1.15 L/kg | 0.27 L/kg | 0.035 | 1.9 h |  |  |  |  |  |  |  |  |  | 
2 | NCCC(O)C(=O)N[C@@H]1C[C@H](N)[C@@H](O[C@H]2O[C@H](CN)[C@@H](O)[C@H](O)[C@H]2O)[C@H](O)[C@H]1O[C@H]1O[C@H](CO)[C@@H](O)[C@H](N)[C@H]1O (stereo partly drawn) | 0.2 L/kg | 0.16 L/kg |  | 2.4 h | 3.5 mL/min/kg | 5.4 mL/min/kg | 2.4 h | 0.16 L/kg | 1.1 mL/min/kg | 0.88 |  |  |  | 
3 | CCCCNC(=O)NS(=O)(=O)c1ccc(C)cc1 |  | 0.13 L/kg |  | 7 h |  | 0.42 mL/min/kg | 9.5 h | 0.12 L/kg |  |  |  |  |  | 
4 | CN1CCC[C@H]1c1cccnc1 | 3.3 L/kg | 2.77 L/kg |  | 2 h | 42 mL/min/kg | 46.3 mL/min/kg | 2.4 h | 2.6 L/kg | 18 mL/min/kg |  |  |  |  | 
5 | CN(C)CCc1c[nH]c2ccc(C[C@H]3COC(=O)N3)cc12 |  | 3.53 L/kg |  | 3.6 h |  | 29.4 mL/min/kg | 4.6 h | 1.8 L/kg | 6.7 mL/min/kg |  |  |  |  | 
6 | C[C@@H](CN1CC(=O)NC(=O)C1)N1CC(=O)NC(=O)C1 | 0.72 L/kg |  |  | 2.5 h | 11.5 mL/min/kg |  | 3 h | 0.55 L/kg | 3.1 mL/min/kg |  |  |  |  | 
7 | C[C@]12C=CC(=O)C=C1CC[C@@H]1C2C(=O)C[C@@]2(C)[C@H]1CC[C@]2(O)C(=O)CO (stereo partly drawn) | 2.3 L/kg | 1.3 L/kg | 0.41 | 2.9 h | 24.9 mL/min/kg | 155 mL/min/kg | 3.8 h | 0.57 L/kg |  |  | 0.5 | 1.7 L/kg | 9.8 mL/min/kg | 0.261
8 | CC(C)c1cccc(C(C)C)c1O | 2.46 L/kg | 1.37 L/kg | 0.03 | 3.2 h | 39.8 mL/min/kg | 107 mL/min/kg | 2.2 h | 4.7 L/kg | 36 mL/min/kg | 0.016 | 0.02 |  |  | 
9 | Cc1cccc(C)c1NC(=O)C(C)N (stereo not drawn) |  | 5 L/kg |  | 12 h |  | 37.8 mL/min/kg | 14 h | 1.8 L/kg | 2.2 mL/min/kg |  |  |  |  | 
10 | CC1(C)S[C@@H]2C(NC(=O)C(N)c3ccccc3)C(=O)N2C1C(=O)O (stereo partly drawn) | 0.58 L/kg | 1.1 L/kg | 0.6 | 1.4 h | 9.1 mL/min/kg | 19 mL/min/kg | 1.3 h | 0.22 L/kg | 2.8 mL/min/kg |  | 0.58 |  |  | 
11 | NC[C@H]1O[C@H](O[C@H]2[C@H](O)[C@@H](O[C@H]3O[C@H](CO)[C@@H](O)[C@H](N)[C@H]3O)[C@H](N)C[C@@H]2N)[C@H](N)C[C@@H]1O |  | 0.68 L/kg |  | 2 h |  | 15.7 mL/min/kg | 2.4 h | 0.23 L/kg | 1.6 mL/min/kg | 1 |  |  |  | 
12 | COc1c(N2CCNC(C)C2)c(F)cc2c(=O)c(C(=O)O)cn(C3CC3)c12 (stereo not drawn) | 2.11 L/kg | 2.5 L/kg | 0.75 | 10 h | 4.2 mL/min/kg | 19.3 mL/min/kg | 11 h | 1.7 L/kg | 2.8 mL/min/kg |  | 0.84 | 1.85 L/kg | 10.2 mL/min/kg | 0.83
13 | CON=C(C(=O)NC1C(=O)N2C(C(=O)[O-])=C(C[n+]3cccc4c3CCC4)CS[C@H]12)c1csc(N)n1 (stereo partly drawn) | 0.22 L/kg | 0.3 L/kg |  | 1.7 h | 3.2 mL/min/kg | 9.5 mL/min/kg | 2.1 h | 0.24 L/kg | 1.9 mL/min/kg | 0.9 | 0.542 | 0.27 L/kg | 2.4 mL/min/kg | 0.446
14 | C[C@]12CC[C@@H]3c4ccc(O)cc4CC[C@H]3[C@@H]1CC[C@@H]2O |  | 5.9 L/kg | 0.053 | 1.7 h |  | 69 mL/min/kg | 0.7 h | 1.2 L/kg | 30 mL/min/kg |  |  |  |  | 
15 | Cc1cc(=O)n(-c2ccccc2)n1C | 0.09 L/kg | 0.81 L/kg | 1 | 12 h | 6.3 mL/min/kg | 9.1 mL/min/kg | 20 h | 0.77 L/kg | 0.64 mL/min/kg |  | 0.6 | 0.74 L/kg | 4.6 mL/min/kg | 0.908
16 | C[C@@H]1O[C@@H]1P(=O)(O)O | 0.77 L/kg |  |  | 1.9 h | 6.9 mL/min/kg |  | 2.7 h | 0.32 L/kg | 2 mL/min/kg |  | 1 |  |  | 
17 | C[C@@H](O)C1C(=O)N2C(C(=O)O)=C(S[C@@H]3CNC(C(=O)Nc4cccc(C(=O)O)c4)C3)[C@H](C)[C@H]12 (stereo partly drawn) |  | 0.34 L/kg |  | 3.8 h |  | 10 mL/min/kg | 4.4 h | 0.12 L/kg | 0.45 mL/min/kg | 0.1 |  | 0.17 L/kg | 0.47 mL/min/kg | 
18 | COc1ccnc(C[S+](O)c2nc3ccc(OC(F)F)cc3[n-]2)c1OC (stereo not drawn) |  | 0.35 L/kg |  | 1.9 h |  | 8.5 mL/min/kg | 1.3 h | 0.17 L/kg | 2.2 mL/min/kg | 0.02 |  |  |  | 
19 | Nc1ncnc2c1ncn2CCOCP(=O)(O)O | 1.3 L/kg | 1.6 L/kg |  | 1.6 h | 5.3 mL/min/kg | 22 mL/min/kg | 1.9 h | 0.42 L/kg | 3.7 mL/min/kg |  |  | 0.81 L/kg | 16 mL/min/kg | 
20 | CCOc1ccccc1OCCN[C@H](C)Cc1ccc(OC)c(S(N)(=O)=O)c1 | 1.74 L/kg | 3.25 L/kg | 0.24 | 6.8 h | 19.3 mL/min/kg | 82.2 mL/min/kg | 5.6 h | 0.21 L/kg | 0.62 mL/min/kg |  | 0.1 |  |  | 
21 | CCN(CCO)CCCC(C)Nc1ccnc2cc(Cl)ccc12 (stereo not drawn) |  | 14.6 L/kg | 0.62 | 850 h |  | 28.2 mL/min/kg | 1300 h | 700 L/kg | 11 mL/min/kg | 0.57 |  |  |  | 
22 | CON=C(C(=O)NC1C(=O)N2C(C(=O)O)=C(CSc3nnnn3C)CS[C@H]12)c1csc(N)n1 (stereo partly drawn) | 0.3 L/kg | 0.28 L/kg |  | 0.89 h | 8.91 mL/min/kg | 7.46 mL/min/kg | 0.77 h | 0.2 L/kg | 3.65 mL/min/kg | 0.31 |  |  |  | 
23 | Cc1cc(=O)c(C(=O)NC(C(=O)NC2C(=O)N3C(C(=O)O)=C(CSc4nnnn4C)CS[C@H]23)c2ccc(O)cc2)c[nH]1 (stereo partly drawn) | 0.49 L/kg | 0.26 L/kg | 0.54 | 5.4 h | 5.7 mL/min/kg | 9.5 mL/min/kg | 5.2 h | 0.15 L/kg | 0.48 mL/min/kg | 0.03 | 0.7 | 0.1 L/kg | 0.5 mL/min/kg | 0.07
24 | CCN(CC)CCNC(=O)c1ccc(NS(C)(=O)=O)cc1 | 1.4 L/kg | 2.08 L/kg |  | 3.8 h | 9 mL/min/kg | 25.6 mL/min/kg | 3.7 h | 0.82 L/kg | 3.7 mL/min/kg |  |  |  |  | 
25 | Nc1cc(-c2ccncc2)c[nH]c1=O | 1.2 L/kg |  |  | 2 h | 6 mL/min/kg |  | 2.4 h | 1.3 L/kg | 8.9 mL/min/kg | 0.89 |  |  |  | 
26 | CN(C)CCc1c[nH]c2ccc(CS(=O)(=O)N3CCCC3)cc12 | 3.98 L/kg | 2.7 L/kg | 0.72 | 3.4 h | 28.5 mL/min/kg | 55.8 mL/min/kg | 4.2 h | 2.2 L/kg | 8.9 mL/min/kg | 0.6 | 0.73 | 2.61 L/kg | 40 mL/min/kg | 0.699
